{
  "source": "paper PMC8658016",
  "about": "“Identification of New Compounds with Anticonvulsant and Antinociceptive Properties in a Group of 3-substituted (2,5-dioxo-pyrrolidin-1-yl)(phenyl)-Acetamides” (International Journal of Molecular Sciences, 2021)",
  "key": {"mice [1]": {"system": "mice", "experiment": "Maximal electroshock seizure (MES) test", "type": "in vivo, mouse", "conditions": "mice i.p."}, "mice [2]": {"system": "mice", "experiment": "Psychomotor 6 Hz (32 mA) seizure test", "type": "in vivo, mouse", "conditions": "mice i.p."}, "mice [3]": {"system": "mice", "experiment": "Subcutaneous pentylenetetrazole (scPTZ) seizure test", "type": "in vivo, mouse", "conditions": "mice i.p."}, "mice [4]": {"system": "mice", "experiment": "Timed ivPTZ seizure threshold test", "type": "in vivo, mouse", "description": "The timed ivPTZ test was employed to evaluate the acute effect of compound 14 on the seizure thresholds for (1) the first myoclonic twitch, (2) generalized clonic seizure with the loss of the righting reflex, and (3) forelimb tonus. The experimental procedure has been described in detail elsewhere.\nIn this study, we used adult male Swiss albino mice (Kołacz, Laboratory Animals Breeding, Warszawa, Poland) license no. 106/2019 (Local Ethical Committee in Lublin). In studies assessing the acute effect of compound 14 on neuromuscular strength, body temperature, and seizure threshold, compound 14 was suspended in a 1% solution of Tween 80 and administered i.p., 30 min before the tests.\nThe timed ivPTZ test was employed to evaluate the acute effect of compound 14 on the seizure thresholds for (1) the first myoclonic twitch, (2) generalized clonic seizure with loss of righting reflex, and (3) forelimb tonus. The experimental procedure was described in detail elsewhere. The changes in temperature were recorded using an electronic thermometer (ThermoWorks, Alpine, UT, USA). Mice were gently restrained and a rectal probe was inserted to a depth of ~2 cm into the rectum.\nFigure 2 Acute effect of compound 14 on the threshold for the first myoclonic twitch (panel (A)), generalized clonus (panel (B)), and forelimb tonus (panel (C)) in the ivPTZ seizure threshold test in mice. Compound 14 was administered i.p. 30 min before the seizure test. Control animals received vehicle only. Each experimental group consisted of 9–11 animals. Each bar represents the mean (mg/kg PTZ) + S.E.M. * p < 0.05; ** p < 0.01 vs. the control group (one-way ANOVA, followed by Dunnett’s post hoc test, GraphPad Prism 8.0.1)."}, "mice [5]": {"system": "mice", "experiment": "Oxaliplatin-induced peripheral neuropathy, tactile allodynia (von Frey)", "type": "in vivo, mouse", "conditions": "for pain sensitivity threshold (von Frey), early phase / pain threshold as % of the baseline value, early phase: 3 h after oxaliplatin; for pain threshold (von Frey), late phase / pain threshold as % of the baseline value, late phase: 7 days after oxaliplatin", "description": "To investigate the analgesic activity of compound 14 in neuropathic pain, we used the OXPT-induced peripheral neuropathy model. OXPT directly affects neurons, which results in the upregulation of TRPM8 and TRPA1 and the downregulation of Kv4.3 neuronal channels. Moreover, OXPT forms adduct with mitochondrial DNA and, in this way, change the expression of membrane-associated protein such as channels. All these effects finally lead to peripheral and central sensitization. The neuropathy manifests as the decrease in the pain threshold and can be observed in hours or in days after OXPT administration, which is called the early or late phase of neuropathic pain, respectively. We tested the influence of compound 14 on tactile allodynia using the von Frey method 3 h and 7 days after the induction of neuropathy. In the early phase, we observed a significant decrease in the value of mean force that caused a paw withdrawal reaction (1.84 ± 0.05 g) (60.9% of the baseline) compared to non-treated animals (3.02 ± 0.07 g) (the baseline). In the late phase, the pain threshold was 1.97 ± 0.07 (65.2% of the baseline). The observed tactile allodynia was attenuated by compound 14, which elevated the pain sensitivity threshold in the early phase in a dose-dependent manner. (Figure 7) (2.61 ± 0.08 g, 2.94 ± 0.04 g, and 3.05 ± 0.08 g at the dose of 40 mg/kg, 60 mg/kg, and 80 mg/kg, respectively, which corresponded to 86.4%, 97.3%, and 100.9% of the baseline value). In the late phase, the pain threshold values were 2.45 ± 0.06 g, 2.88 ± 0.04 g, and 2.98 ± 0.06 g, which corresponded to 81.1%, 95.3%, and 98.6% of the baseline value.\nThe experiments were conducted on adult male Albino Swiss mice (CD-1, 18–25 g) and male Wistar rats (Krf:(WI) WU), 180–250 g) as described previously. The minimum number of animals used needed to obtain definite and normally distributed results with the utilized test. Behavioral measures were scored by trained observers, which were blind to experimental conditions. The following devices were used in the experiments: Analgesy Meter (37215, Ugo Basile), Plantar Test Apparatus (EFV5, Commat Ltd., Turkey), Plethysmometer (Plethysmometer 7140, Ugo Basile), Electronic von Frey unit (BIOSEB, France). All procedures were performed according to the European Union Directive of 22 September 2010 (2010/63/EU) and approved by the Local Ethics Committee for Experiments on Animals in Krakow, Poland (resolution no. 105/2016).\nFigure 7 Antiallodynic effects of compound 14 in the tactile allodynia evaluated in the von Frey test in oxaliplatin-induced peripheral neuropathy. Statistical analysis: repeated measures analysis of variance (ANOVA), followed by Dunnett’s post hoc comparison: *** p < 0.001, **** p < 0.0001 (GraphPad Prism 8.0.1). Results obtained before the treatment with oxaliplatin (the gray bar) and after the treatment with oxaliplatin and the compound (post compound 14, the red bars) were compared to the results obtained after the treatment with oxaliplatin and before the administration of the compound (pre compound 14; the white bars)."}, "[6]": {"system": "TTX-sensitive Na+ channel", "experiment": "Radioligand binding, TTX-sensitive Na+ channel", "conditions": "rat cerebral cortex"}, "SH-SY5Y viability (MTS)": {"experiment": "SH-SY5Y viability (MTS)", "type": "cell-based", "conditions": "human, neuroblastoma SH-SY5Y cells"}, "[7]": {"system": "Cav1.2 channel (dihydropyridine site, antagonist radioligand)", "experiment": "Radioligand binding, Cav1.2 channel (dihydropyridine site)", "conditions": "rat cerebral cortex"}, "[8]": {"molecular_target": "Cav1.2 (h) calcium ion channel (Homo sapiens, UniProt Q13936)", "sequence (Q13936 whole entry)": "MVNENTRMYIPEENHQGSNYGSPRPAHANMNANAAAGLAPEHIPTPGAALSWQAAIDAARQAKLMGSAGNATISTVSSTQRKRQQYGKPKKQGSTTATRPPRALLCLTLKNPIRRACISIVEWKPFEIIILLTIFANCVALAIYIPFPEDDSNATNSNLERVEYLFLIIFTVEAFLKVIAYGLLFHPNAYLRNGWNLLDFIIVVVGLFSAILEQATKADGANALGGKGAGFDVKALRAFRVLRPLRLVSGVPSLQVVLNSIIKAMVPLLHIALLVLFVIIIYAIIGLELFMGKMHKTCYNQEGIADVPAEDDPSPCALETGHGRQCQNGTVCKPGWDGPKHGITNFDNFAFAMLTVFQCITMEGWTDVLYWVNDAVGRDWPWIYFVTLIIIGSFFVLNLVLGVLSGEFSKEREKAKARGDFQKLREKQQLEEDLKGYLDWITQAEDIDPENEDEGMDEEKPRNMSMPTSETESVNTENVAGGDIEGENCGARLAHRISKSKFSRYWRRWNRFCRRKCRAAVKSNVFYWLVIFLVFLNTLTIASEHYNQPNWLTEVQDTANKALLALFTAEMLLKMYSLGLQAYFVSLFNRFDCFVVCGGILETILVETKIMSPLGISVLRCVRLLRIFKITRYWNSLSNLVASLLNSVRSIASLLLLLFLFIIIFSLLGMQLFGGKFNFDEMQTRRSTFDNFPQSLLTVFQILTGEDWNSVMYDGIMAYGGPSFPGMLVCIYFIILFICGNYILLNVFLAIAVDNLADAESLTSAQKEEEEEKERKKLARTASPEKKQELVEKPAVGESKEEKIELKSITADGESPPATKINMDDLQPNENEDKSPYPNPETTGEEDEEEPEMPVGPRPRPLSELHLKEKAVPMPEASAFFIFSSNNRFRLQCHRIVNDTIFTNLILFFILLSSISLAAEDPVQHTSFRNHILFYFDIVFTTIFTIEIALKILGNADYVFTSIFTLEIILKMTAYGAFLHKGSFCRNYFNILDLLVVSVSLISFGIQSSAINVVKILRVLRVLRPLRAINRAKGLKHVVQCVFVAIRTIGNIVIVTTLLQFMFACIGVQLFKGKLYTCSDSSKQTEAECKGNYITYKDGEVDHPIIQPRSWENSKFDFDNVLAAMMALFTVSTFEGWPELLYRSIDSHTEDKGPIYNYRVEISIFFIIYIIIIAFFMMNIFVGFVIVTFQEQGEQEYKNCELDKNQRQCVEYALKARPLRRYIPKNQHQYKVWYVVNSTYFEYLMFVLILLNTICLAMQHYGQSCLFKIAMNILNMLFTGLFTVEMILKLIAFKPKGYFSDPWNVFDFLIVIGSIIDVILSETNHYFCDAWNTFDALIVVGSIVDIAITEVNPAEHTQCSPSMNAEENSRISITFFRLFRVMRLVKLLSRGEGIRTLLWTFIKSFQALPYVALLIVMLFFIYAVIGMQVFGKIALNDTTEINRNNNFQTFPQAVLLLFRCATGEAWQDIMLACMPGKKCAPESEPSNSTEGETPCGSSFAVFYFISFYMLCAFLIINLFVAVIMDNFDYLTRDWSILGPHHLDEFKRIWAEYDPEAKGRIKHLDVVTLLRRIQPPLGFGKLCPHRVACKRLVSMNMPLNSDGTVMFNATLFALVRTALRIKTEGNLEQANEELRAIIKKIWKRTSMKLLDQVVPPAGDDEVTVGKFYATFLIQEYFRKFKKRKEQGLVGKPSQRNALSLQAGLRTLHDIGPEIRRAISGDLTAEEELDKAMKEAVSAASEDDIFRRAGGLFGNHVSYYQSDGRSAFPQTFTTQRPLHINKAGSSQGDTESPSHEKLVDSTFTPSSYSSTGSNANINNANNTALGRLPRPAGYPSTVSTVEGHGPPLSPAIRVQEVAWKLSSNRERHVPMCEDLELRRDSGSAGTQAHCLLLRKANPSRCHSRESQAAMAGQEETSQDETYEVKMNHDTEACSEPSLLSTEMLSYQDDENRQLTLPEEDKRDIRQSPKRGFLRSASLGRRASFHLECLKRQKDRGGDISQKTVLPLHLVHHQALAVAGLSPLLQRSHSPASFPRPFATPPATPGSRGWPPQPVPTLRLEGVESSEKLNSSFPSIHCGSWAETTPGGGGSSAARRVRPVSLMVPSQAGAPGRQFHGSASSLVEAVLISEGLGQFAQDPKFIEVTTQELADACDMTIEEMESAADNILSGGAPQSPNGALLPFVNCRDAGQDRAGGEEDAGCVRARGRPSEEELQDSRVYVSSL", "sequence (Q08289 whole entry partner)": "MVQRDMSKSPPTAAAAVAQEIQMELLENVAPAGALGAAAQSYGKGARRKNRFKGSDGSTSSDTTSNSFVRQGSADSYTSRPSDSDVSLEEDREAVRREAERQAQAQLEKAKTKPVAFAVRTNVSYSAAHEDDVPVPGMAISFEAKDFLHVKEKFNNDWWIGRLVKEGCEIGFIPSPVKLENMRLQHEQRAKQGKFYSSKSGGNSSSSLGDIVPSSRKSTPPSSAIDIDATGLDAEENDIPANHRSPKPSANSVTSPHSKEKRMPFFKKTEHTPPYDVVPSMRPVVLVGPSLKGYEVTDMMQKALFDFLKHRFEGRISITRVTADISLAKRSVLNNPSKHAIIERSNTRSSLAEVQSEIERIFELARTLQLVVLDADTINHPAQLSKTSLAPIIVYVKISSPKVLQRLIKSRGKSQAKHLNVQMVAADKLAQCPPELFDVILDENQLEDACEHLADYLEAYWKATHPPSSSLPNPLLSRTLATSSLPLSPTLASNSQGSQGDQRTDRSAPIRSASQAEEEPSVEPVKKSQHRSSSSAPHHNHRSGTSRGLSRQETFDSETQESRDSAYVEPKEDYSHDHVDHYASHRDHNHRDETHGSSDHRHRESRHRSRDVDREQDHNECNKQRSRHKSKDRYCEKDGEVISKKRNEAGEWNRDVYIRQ", "sequence (P54289 25-956 partner limits assumed)": "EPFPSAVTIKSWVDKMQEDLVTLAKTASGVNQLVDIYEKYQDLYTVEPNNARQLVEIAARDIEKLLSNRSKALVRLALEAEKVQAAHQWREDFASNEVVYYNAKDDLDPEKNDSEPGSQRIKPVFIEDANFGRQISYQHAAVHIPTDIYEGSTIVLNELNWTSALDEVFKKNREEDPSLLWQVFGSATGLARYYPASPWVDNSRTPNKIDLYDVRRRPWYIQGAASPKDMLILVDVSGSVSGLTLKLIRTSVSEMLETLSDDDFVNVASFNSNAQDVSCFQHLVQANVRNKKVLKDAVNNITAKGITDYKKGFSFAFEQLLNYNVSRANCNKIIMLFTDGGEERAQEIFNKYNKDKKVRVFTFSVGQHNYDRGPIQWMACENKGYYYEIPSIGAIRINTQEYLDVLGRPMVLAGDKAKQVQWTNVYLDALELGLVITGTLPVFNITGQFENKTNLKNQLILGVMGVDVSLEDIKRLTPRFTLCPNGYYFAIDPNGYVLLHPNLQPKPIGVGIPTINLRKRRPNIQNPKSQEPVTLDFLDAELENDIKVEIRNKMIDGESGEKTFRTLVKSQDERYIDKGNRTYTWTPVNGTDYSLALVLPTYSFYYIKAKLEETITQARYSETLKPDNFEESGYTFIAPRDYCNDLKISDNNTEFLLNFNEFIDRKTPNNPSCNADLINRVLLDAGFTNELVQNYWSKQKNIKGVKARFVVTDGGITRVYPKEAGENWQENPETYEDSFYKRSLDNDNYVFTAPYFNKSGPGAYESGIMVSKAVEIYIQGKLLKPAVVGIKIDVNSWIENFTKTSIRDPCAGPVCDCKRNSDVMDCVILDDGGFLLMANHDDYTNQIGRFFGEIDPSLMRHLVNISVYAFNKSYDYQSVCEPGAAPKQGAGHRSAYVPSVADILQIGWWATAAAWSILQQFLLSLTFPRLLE", "sequence (P54289 957-1103 partner limits assumed)": "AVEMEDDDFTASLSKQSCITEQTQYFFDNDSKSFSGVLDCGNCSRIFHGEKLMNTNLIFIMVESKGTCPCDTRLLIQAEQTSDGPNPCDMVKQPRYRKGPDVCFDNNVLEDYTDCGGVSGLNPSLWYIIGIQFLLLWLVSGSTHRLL", "experiment": "Cav1.2 calcium ion channel cell based antagonist calcium flux assay", "conditions": "HEK293, read-out: % Inhibition of Control Agonist Response, Cav1.2 (h) calcium ion channel cell based antagonist calcium flux assay"}, "[9]": {"conditions": "Mus musculus, ip, 95% confidence interval in parentheses"}, "[10]": {"conditions": "30 mg/kg i.p., 30 min before test"}},
  "data": [
    {"compound": "CN(C)C1CC(=O)N(C(C(=O)N2CCN(c3cccc(C(F)(F)F)c3)CC2)c2ccccc2)C1=O.Cl", "note": "(centres unmarked) [Compound 14, 3-(Dimethylamino)-1-(2-oxo-1-phenyl-2-(4-(3-(trifluoromethyl)phenyl)-piperazin-1-yl)ethyl)pyrrolidine-2,5-dione hydrochloride]", "values": [
      {"measurement": "ED50", "setting": "mice [1]; [9]", "result": 49.6, "unit": "mg/kg"},
      {"measurement": "MES screening: number of mice protected / number of mice tested", "setting": "mice [1]; 100 mg/kg, 0.5 h", "result": "4/4"},
      {"measurement": "protection in the MES test", "setting": "mice [1]; 100 mg/kg, 0.5 h", "result": 100, "unit": "%"},
      {"measurement": "ED50", "setting": "mice [2]; [9]", "result": 31.3, "unit": "mg/kg"},
      {"measurement": "6 Hz (32 mA) screening: number of mice protected / number of mice tested", "setting": "mice [2]; 100 mg/kg, 0.5 h", "result": "3/4"},
      {"measurement": "protection in the 6 Hz (32 mA) test", "setting": "mice [2]; 100 mg/kg, 0.5 h", "result": 75, "unit": "%"},
      {"measurement": "ED50", "setting": "mice [3]; [9]", "result": 67.4, "unit": "mg/kg"},
      {"measurement": "scPTZ screening: number of mice protected / number of mice tested", "setting": "mice [3]; 100 mg/kg, 0.5 h", "result": "2/4"},
      {"measurement": "effect on threshold for generalized clonus (ivPTZ)", "setting": "mice [4]; [10]", "result": "did not significantly affect"},
      {"measurement": "effect on threshold for the first myoclonic twitch (ivPTZ)", "setting": "mice [4]; [10]", "result": "did not significantly affect"},
      {"measurement": "effect on threshold for generalized clonic seizure (ivPTZ)", "setting": "mice [4]; 60 mg/kg i.p., 30 min before test, p < 0.01", "result": "slightly increased"},
      {"measurement": "effect on threshold for the first myoclonic twitch (ivPTZ)", "setting": "mice [4]; 60 mg/kg i.p., 30 min before test, p < 0.05", "result": "slightly increased"},
      {"measurement": "effect on threshold for forelimb tonic extension (ivPTZ)", "setting": "mice [4]; 30 and 60 mg/kg i.p.", "result": "No statistically significant changes"},
      {"measurement": "pain sensitivity threshold (von Frey), early phase", "setting": "mice [5]; 40 mg/kg", "result": "2.61 ± 0.08", "unit": "g"},
      {"measurement": "pain threshold as % of the baseline value, early phase", "setting": "mice [5]; 40 mg/kg", "result": 86.4, "unit": "%"},
      {"measurement": "pain threshold (von Frey), late phase", "setting": "mice [5]; 40 mg/kg", "result": "2.45 ± 0.06", "unit": "g"},
      {"measurement": "pain threshold as % of the baseline value, late phase", "setting": "mice [5]; 40 mg/kg", "result": 81.1, "unit": "%"},
      {"measurement": "pain sensitivity threshold (von Frey), early phase", "setting": "mice [5]; 60 mg/kg", "result": "2.94 ± 0.04", "unit": "g"},
      {"measurement": "pain threshold as % of the baseline value, early phase", "setting": "mice [5]; 60 mg/kg", "result": 97.3, "unit": "%"},
      {"measurement": "pain threshold (von Frey), late phase", "setting": "mice [5]; 60 mg/kg", "result": "2.88 ± 0.04", "unit": "g"},
      {"measurement": "pain threshold as % of the baseline value, late phase", "setting": "mice [5]; 60 mg/kg", "result": 95.3, "unit": "%"},
      {"measurement": "pain sensitivity threshold (von Frey), early phase", "setting": "mice [5]; 80 mg/kg", "result": "3.05 ± 0.08", "unit": "g"},
      {"measurement": "pain threshold as % of the baseline value, early phase", "setting": "mice [5]; 80 mg/kg", "result": 100.9, "unit": "%"},
      {"measurement": "pain threshold (von Frey), late phase", "setting": "mice [5]; 80 mg/kg", "result": "2.98 ± 0.06", "unit": "g"},
      {"measurement": "pain threshold as % of the baseline value, late phase", "setting": "mice [5]; 80 mg/kg", "result": 98.6, "unit": "%"},
      {"measurement": "% Inhibition of Control-Specific Binding, TTX-sensitive Na+ channel", "setting": "[6]; 10 µM", "result": 31.0, "unit": "%"},
      {"measurement": "% Inhibition of Control-Specific Binding, TTX-sensitive Na+ channel", "setting": "[6]; 50 µM", "result": 90.3, "unit": "%"},
      {"measurement": "viability at 72 h, 0.001 µM", "setting": "SH-SY5Y viability (MTS); 0.001 µM, read-out: SH-SY5Y cell viability, % of the control", "result": "≤ 120", "unit": "%"},
      {"measurement": "viability at 72 h, 10 µM", "setting": "SH-SY5Y viability (MTS); 10 µM, read-out: SH-SY5Y cell viability, % of control", "result": 140, "unit": "%"},
      {"measurement": "% Inhibition of Control-Specific Binding, Cav1.2 channel (dihydropyridine site, antagonist radioligand)", "setting": "[7]; 10 µM", "result": 6.0, "unit": "%"},
      {"measurement": "% Inhibition of Control-Specific Binding, Cav1.2 channel (dihydropyridine site, antagonist radioligand)", "setting": "[7]; 50 µM", "result": 75.4, "unit": "%"},
      {"measurement": "inhibition at 10 µM", "setting": "[8]", "result": 29, "unit": "%"}
    ]}
  ]
}
